In ChEMBL document CHEMBL5465560, “Selectivity Literature for EUbOPEN Chemogenomic Library” (2024) one finds % of control data, which are given here for 8 molecules.

Assay [1] has as its target T1, Serine/threonine-protein kinase Chk1 (Homo sapiens) (UniProt O14757).
T1 sequence (whole entry): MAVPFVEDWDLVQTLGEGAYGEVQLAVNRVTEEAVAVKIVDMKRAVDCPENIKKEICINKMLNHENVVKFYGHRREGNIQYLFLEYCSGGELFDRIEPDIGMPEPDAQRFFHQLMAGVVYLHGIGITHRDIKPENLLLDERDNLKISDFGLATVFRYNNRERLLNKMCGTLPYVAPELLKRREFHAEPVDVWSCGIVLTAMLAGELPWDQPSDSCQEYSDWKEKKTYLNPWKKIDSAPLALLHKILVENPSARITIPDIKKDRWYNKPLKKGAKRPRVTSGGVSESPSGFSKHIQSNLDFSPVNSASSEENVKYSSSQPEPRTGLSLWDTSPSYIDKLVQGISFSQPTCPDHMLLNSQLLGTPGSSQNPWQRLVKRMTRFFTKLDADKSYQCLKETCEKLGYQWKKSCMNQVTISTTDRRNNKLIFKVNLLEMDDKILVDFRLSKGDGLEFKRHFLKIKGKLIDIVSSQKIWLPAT
Nature of the assay: Selectivity interaction (Ambit KINOMEscan and KiNATiv profiling in Jurkat cells) EUB0000090b CHEK1. In kind it is cell-based. Particulars: at 1 µM.

For assay [2], the system named is T2, Receptor-type tyrosine-protein kinase FLT3 (Homo sapiens), P36888 [N841I].
T2 sequence (whole entry): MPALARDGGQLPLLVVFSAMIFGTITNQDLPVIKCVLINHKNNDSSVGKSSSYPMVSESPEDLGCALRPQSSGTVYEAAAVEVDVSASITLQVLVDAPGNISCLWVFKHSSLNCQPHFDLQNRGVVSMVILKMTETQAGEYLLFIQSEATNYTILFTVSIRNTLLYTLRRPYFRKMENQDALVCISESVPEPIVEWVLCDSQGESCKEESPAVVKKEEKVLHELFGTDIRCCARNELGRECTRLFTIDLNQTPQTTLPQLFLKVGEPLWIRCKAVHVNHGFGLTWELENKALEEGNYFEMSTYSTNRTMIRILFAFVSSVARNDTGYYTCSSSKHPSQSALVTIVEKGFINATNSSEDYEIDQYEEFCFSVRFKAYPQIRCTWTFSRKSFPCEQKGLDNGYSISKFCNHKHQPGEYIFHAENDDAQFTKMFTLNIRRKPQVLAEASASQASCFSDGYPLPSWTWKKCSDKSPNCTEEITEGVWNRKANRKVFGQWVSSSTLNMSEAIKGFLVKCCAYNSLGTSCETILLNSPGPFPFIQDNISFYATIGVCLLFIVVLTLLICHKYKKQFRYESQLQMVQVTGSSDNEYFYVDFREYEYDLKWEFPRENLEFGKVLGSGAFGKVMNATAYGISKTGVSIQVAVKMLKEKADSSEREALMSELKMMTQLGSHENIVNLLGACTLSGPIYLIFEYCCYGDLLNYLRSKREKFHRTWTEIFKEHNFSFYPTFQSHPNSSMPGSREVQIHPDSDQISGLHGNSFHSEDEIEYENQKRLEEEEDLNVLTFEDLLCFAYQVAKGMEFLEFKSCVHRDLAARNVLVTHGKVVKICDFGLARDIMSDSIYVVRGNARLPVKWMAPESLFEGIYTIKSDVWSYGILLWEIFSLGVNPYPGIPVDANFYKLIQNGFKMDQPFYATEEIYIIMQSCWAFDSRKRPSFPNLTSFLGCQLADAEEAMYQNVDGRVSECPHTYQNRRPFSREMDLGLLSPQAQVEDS
Particulars: at 10 µM.

Assay [3] deals with Serine/threonine-protein kinase 16 (Homo sapiens, UniProt O75716). The experiment in a line: Selectivity interaction (KinomeScan (DiscoverX)) EUB0001079a STK16. Particulars: at 1 µM.
Assay [4] addresses T3, Mitogen-activated protein kinase 13 (Homo sapiens) (UniProt O15264).
T3 sequence (whole entry): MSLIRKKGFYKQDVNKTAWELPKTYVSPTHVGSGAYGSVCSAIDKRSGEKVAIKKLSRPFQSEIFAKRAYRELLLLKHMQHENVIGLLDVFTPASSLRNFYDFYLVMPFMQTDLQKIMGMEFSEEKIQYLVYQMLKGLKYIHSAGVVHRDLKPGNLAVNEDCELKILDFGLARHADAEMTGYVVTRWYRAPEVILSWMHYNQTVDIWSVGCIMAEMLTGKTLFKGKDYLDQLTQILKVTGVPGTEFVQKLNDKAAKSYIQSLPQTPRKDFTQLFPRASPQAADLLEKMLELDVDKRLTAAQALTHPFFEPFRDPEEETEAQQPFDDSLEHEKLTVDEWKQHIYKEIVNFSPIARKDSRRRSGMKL
Nature of the assay: Selectivity interaction (KinomeScan (DiscoverX)) EUB0001619a MAPK13. Particulars: at 1 µM.

The target of assay [5] is Serine/threonine-protein kinase MARK2 (Homo sapiens) (UniProt Q7KZI7). Nature of the assay: Selectivity interaction (KinomeScan (DiscoverX)) EUB0001619a MARK2. Particulars: at 1 µM.
Assay [6] concerns the target Mitogen-activated protein kinase 10 (Homo sapiens, UniProt P53779). Particulars: at 10 µM.
The target of assay [7] is Bone morphogenetic protein receptor type-1B (Homo sapiens, UniProt O00238). Nature of the assay: Selectivity interaction (KinomeScan (DiscoverX)) EUB0001049a BMPR1B. Particulars: at 1 µM.
The target in assay [8] is Dual specificity protein kinase CLK4 (Homo sapiens, UniProt Q9HAZ1). The experiment in a line: Selectivity interaction (KinomeScan (DiscoverX)) EUB0000045b CLK4.
Assay [9] deals with T4, Dual specificity tyrosine-phosphorylation-regulated kinase 2 (Homo sapiens) (UniProt Q92630).
T4 sequence (whole entry): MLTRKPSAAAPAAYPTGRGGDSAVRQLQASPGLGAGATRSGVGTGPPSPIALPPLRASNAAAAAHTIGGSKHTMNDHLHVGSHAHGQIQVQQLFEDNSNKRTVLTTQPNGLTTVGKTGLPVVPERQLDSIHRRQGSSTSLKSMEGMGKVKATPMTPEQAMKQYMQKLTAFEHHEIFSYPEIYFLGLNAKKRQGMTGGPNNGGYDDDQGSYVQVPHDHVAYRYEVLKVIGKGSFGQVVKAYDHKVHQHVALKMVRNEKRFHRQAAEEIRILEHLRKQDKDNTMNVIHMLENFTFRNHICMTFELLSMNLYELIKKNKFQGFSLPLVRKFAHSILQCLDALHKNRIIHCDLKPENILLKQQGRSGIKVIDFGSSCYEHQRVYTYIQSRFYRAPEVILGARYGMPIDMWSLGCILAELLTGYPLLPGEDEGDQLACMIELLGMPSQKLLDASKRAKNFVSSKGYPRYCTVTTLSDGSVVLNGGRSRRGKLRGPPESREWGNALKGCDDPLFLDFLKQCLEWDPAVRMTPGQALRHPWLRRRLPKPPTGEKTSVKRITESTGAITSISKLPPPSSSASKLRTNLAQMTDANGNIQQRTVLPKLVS
The experiment in a line: Selectivity interaction (KinomeScan (DiscoverX)) EUB0000595a DYRK2. Particulars: at 10 µM.

Dual specificity protein kinase CLK4, sequence (Q9HAZ1 whole entry, looked up): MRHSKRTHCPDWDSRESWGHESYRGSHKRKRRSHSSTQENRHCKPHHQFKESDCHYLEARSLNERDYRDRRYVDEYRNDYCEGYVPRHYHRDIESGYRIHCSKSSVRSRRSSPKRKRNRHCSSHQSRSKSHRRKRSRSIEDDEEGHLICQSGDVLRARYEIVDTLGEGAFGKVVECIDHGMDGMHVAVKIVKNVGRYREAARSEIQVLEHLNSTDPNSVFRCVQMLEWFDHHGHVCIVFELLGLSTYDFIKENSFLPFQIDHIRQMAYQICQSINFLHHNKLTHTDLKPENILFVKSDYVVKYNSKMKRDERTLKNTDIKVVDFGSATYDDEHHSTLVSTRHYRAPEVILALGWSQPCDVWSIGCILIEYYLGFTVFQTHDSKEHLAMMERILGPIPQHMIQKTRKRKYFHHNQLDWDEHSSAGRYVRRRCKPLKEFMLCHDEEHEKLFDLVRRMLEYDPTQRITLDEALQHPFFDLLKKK
Mitogen-activated protein kinase 10, sequence (P53779 whole entry): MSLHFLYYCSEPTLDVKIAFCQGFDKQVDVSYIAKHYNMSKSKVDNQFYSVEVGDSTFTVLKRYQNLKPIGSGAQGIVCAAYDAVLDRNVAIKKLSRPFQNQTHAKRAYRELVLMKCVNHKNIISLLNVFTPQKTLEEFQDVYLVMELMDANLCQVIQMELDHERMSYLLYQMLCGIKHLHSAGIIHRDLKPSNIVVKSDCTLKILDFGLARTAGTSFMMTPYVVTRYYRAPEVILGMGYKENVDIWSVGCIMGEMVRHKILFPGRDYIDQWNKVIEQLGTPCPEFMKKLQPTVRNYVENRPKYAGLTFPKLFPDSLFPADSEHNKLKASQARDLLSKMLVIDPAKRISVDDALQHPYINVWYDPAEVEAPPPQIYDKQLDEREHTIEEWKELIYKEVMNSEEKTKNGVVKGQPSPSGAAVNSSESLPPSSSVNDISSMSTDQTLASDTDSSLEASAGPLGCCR
Serine/threonine-protein kinase 16, sequence (O75716 whole entry): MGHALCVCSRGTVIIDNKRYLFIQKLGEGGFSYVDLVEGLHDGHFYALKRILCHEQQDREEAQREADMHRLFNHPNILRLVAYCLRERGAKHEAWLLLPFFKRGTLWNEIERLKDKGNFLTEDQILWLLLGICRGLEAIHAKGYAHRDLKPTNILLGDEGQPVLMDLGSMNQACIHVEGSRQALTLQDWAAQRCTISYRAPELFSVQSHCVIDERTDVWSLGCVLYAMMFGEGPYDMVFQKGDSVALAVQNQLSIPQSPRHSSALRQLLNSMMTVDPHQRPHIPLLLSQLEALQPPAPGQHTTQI
Serine/threonine-protein kinase MARK2 (Homo sapiens), sequence (Q7KZI7 whole entry): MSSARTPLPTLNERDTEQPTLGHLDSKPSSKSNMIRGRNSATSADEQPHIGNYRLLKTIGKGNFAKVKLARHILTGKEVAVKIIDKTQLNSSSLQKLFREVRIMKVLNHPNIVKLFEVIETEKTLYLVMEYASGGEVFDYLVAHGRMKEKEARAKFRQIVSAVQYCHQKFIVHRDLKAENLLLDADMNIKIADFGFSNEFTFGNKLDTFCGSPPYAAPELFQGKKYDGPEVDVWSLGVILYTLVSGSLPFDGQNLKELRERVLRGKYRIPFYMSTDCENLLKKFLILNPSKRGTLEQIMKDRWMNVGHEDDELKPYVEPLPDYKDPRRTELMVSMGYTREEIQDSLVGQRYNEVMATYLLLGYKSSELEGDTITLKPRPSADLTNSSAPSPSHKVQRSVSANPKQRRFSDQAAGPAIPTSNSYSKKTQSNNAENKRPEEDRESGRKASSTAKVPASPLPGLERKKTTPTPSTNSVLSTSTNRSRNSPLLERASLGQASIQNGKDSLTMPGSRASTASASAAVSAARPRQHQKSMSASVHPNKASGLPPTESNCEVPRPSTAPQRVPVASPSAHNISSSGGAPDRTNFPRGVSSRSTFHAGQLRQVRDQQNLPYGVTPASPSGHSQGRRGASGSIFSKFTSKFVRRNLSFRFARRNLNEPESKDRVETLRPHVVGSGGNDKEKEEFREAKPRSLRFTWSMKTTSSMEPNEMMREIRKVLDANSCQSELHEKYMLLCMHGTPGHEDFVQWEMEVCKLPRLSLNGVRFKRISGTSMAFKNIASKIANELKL
Bone morphogenetic protein receptor type-1B, sequence (O00238 whole entry): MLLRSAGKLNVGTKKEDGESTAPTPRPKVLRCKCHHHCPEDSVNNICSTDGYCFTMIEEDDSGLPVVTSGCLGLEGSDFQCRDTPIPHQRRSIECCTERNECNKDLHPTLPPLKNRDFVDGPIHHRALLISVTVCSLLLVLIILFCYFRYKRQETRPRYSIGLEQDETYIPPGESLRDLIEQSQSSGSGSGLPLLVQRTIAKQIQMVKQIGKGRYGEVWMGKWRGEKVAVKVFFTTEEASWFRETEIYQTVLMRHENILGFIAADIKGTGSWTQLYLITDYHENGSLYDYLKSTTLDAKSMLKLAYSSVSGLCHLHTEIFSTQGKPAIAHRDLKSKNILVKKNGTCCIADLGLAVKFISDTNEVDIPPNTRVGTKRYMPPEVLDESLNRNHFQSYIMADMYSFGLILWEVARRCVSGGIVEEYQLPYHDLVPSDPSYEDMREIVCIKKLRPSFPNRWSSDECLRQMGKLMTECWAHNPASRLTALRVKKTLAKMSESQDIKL

Consider `CN(C)C/C=C/C(=O)Nc1ccc(C(=O)N2CCCC(Nc3ncc(Cl)c(-c4c[nH]c5ccccc45)n3)C2)cc1` (stereo not given), for which, in [1], the % of control is 89%.
`Cc1cc([C@@H](C)Nc2ccccc2C(=O)O)c2nc(N3CCOCC3)cc(=O)n2c1` [AZD-6482]: in assay [2], the % of control amounted to 44%.
On to `Nc1cnc(N2CCc3cc(S(=O)(=O)Nc4c(F)cc(Cl)cc4F)cc(N4CCCC4=O)c32)nc1` [TP-020n], for which the % of control in assay [3] was determined as 100%.
Take `N#Cc1cccc(-c2c[nH]c3ncnc(N4CCOCC4)c23)c1`: the % of control in assay [4] amounted to 70%; in [5] it was 43%.
`CCN(CC)CCCCNc1ncc2cc(-c3cc(OC)cc(OC)c3)c(NC(=O)NC(C)(C)C)nc2n1` registered a % of control in assay [6] of 100%.
With `COc1cc(Nc2nc(C)cc(-c3cnn4nc(OC)ccc34)n2)cc(C(F)(F)F)c1`, in assay [7], the % of control was determined as 81%.
Turning to `C=CC(=O)Nc1cc(-n2c(=O)ccc3cnc4ccc(-c5ccc(NS(C)(=O)=O)cc5)cc4c32)ccc1C`, the % of control in assay [8] (at 1 µM) was determined as 99%; in [8] (at 10 µM), 85%.
Turning to `COCC(=O)NC/C=C/c1ccc2ncnc(Nc3ccc(Oc4ccc(C)nc4)c(C)c3)c2c1` [CP-724714], the % of control in [9] is 100%.
